Measured values reported in US20120183619A1, “TRICLOSAN DERIVATIVES AND NANOPARTICLES COMPRISING SAME” (BAR ILAN UNIVERSITY, priority 2011, published 2012).
Converted amounts (≈) assume the structure as drawn.

Tests used:
[1] = test system: Staphylococcus Aureus (S. aureus) (Gram-positive); assay: Killing curves / antimicrobial activity on S. aureus; format: cell-based
Experimental: (§1) In order to investigate the antimicrobial activity of the nanoparticles, a series of biological experiments were designed and carried out on two common bacterial pathogens, Escherichia Coli (E. coli) (Gram-negative) and Staphylococcus Aureus (S. aureus) (Gram-positive). Killing curves were determined in triplicate using starting inocula of 10^6 CFU mL^−1. Fresh, overnight growths of bacteria in TSB or TSB-Glu were diluted as necessary to produce the desired starting inocula in 10 mL of medium. T-SNPs and triclosan were tested in concentration ranges from 0 to 50 μg mL^−1 and 0 to 1 μg mL^−1, respectively. Unloaded SNPs were added at the highest tested concentration (50 μg mL^−1). TTESPC was previously dissolved in dimethyl sulfoxide (DMSO) and added to the media at a concentration of 50 μg mL^−1. Samples (100 μL) were removed from each well every 2 h and diluted appropriately in saline. Colony-forming units were determined by spotting 5 μL samples in triplicate on Luria-Bertani agar plates after 24 h incubation at 37° C. To confirm that the antimicrobial properties of the T-SNPs were mediated by the sole release of triclosan, the triclosan-resistant strain of E. coli, RJH108, was exposed to the highest concentration of T-SNPs tested (50 μg mL^−1). The viability was determined by using the same experimental protocol as described above.
(§2) Despite the similar MICs, a difference in the sensitivity of these strains to the T-SNPs treatment was observed. […] Then, the nanoparticles were centrifuged, filtered and the supernatant was incubated separately with E. coli and S. aureus and their growth was monitored. […]
(§3) The MIC of free triclosan that affected the growth of the two types of bacteria was measured (FIGS. 11A-B). […] As calculated from the elemental analysis, the triclosan constituted only […] of the nanoparticles, meaning that the highest concentration of nanoparticles taken for the experiments, 50 μg mL^−1, encompassed only 0.041 μg mL^1 of covalently bound triclosan. […]

[2] = test system: Escherichia Coli (E. coli) (Gram-negative); assay: Killing curves / antimicrobial activity on E. coli; format: cell-based
Experimental: as §1, §2, §3

[3] = cited from earlier work

SMILES: CCO[Si](CCCNC(=O)Oc1cc(Cl)ccc1Oc1ccc(Cl)cc1Cl)(OCC)OCC [TTESPC, 5-chloro-2-(2,4-dichlorophenoxy)phenyl (3-(triethoxysilyl)propyl)carbamate]
- antibacterial activity (control) ([1]; S. aureus, 50 μg mL^−1, dissolved in DMSO): no antibacterial activity was observed
- antibacterial activity (control) ([2]; E. coli, 50 μg mL^−1, dissolved in DMSO): no antibacterial activity was observed

SMILES: Oc1cc(Cl)ccc1Oc1ccc(Cl)cc1Cl [triclosan, 5-chloro-2-(2,4-dichlorophenoxy)phenol]
- chemical stability (time) ([3]; at up to 200° C.): up to 2 h
- solubility in aqueous solution ([3]; unless the pH is alkaline): fairly insoluble
- effect on bacterial growth at equal triclosan concentration ([1]; S. aureus, 0.041 μg mL^1 triclosan (50 μg mL^−1 nanoparticles)): only began to impede the bacterial growth
- MBC ([1]; Staphylococcus aureus, read-out: minimal bactericidal concentration (MIC)): 0.1 µg/mL (≈ 0.345 µM)
- effect on bacterial growth at equal triclosan concentration ([2]; E. coli, 0.041 μg mL^1 triclosan (50 μg mL^−1 nanoparticles)): only began to impede the bacterial growth
- MBC ([2]; Escherichia coli, read-out: minimal bactericidal concentration (MIC)): 0.1 µg/mL (≈ 0.345 µM)
